Laboratory results taken from patent US20160297761A1, “NOVEL INHIBITORS OF GLUTAMINASE” (RHIZEN PHARMACEUTICALS SA, priority 2014, published 2016).
Like-named read-outs stand apart in the source and are kept apart here.

How the values were obtained:
[1] = target: T1, L-glutaminase present in mice brain homogenate (Glutaminase(Brain)) (Mus musculus, UniProt D3Z7P3); assay: Glutaminase enzyme activity using glutaminase enzyme from mice brain/kidney homogenate (Nessler's reagent, ammonia); format: biochemical; details: for inhibition at 0.1 µM: read-out: Glutaminase(Brain) activity % inhibition 0.1 μM; for inhibition at 1 µM: read-out: Glutaminase(Brain) activity % inhibition @1 μM
T1 sequence (D3Z7P3 55-674): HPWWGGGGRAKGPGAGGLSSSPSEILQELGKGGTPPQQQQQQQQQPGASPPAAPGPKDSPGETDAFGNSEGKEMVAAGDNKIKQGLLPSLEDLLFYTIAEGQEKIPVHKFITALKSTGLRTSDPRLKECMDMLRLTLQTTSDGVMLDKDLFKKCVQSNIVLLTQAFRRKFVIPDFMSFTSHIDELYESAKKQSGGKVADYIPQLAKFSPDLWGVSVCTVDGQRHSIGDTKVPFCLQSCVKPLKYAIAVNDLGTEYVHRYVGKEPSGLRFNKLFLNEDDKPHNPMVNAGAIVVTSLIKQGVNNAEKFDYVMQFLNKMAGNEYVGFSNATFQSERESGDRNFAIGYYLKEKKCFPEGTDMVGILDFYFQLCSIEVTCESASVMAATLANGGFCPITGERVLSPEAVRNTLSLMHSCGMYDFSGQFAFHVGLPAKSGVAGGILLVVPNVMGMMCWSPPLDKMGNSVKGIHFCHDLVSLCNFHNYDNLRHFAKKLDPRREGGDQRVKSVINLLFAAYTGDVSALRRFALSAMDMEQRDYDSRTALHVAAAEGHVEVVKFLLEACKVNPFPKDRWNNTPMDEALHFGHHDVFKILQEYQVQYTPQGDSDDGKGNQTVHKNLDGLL
Procedure: Assay 3: Determination of Glutaminase Enzyme Activity Using Glutaminase
Enzyme from Mice Brain/Kidney
Step 1: Preparation of Tissue Homogenates: Male Balb/c mice were administered 0.28 M ammonium chloride in drinking water for 7 days. The animals were sacrificed and brain/kidney organs collected on dry ice. […] The tissue was homogenized and supernatants were stored at −80° C. until the enzyme assay was performed.
Aim: Compounds were assessed for their ability to inhibit the enzymatic activity of L-glutaminase present in mice brain/kidney homogenate.
Protocol: The assay was performed using a colorimetric method using Nessler's Reagent by quantifying the amount of ammonia formed as a by product during the enzymatic conversion of L-glutamine to glutamate. In the routine assay, 16 μl of tissue homogenate is added to 33 μl of Tris-Hcl phosphate buffer (pH 8) along with 1 μl of DMSO/test compound containing the desired final concentration and vortexed briefly. 50 μl of 20 mM L-glutamine Tris buffer is added to start the reaction and incubated for 15 minutes at 37° C. The ammonia formed is detected by adding 20 μl of reaction mixture to cold water in a 96 well plate followed by 20 μl of Nessler's reagent. The colour developed is measured at 450 nm. Data Analysis: Activity of the test compound is reported as % inhibition and the data is analyzed using Graphpad Prism (Graphpad software; San Diego Calif.) for IC50 determination.

[2] = system: cancer cell lines; assay: In vitro cell proliferation assay in cancer cell lines (MTT dye reduction, 72 h); format: cell-based; details: cancer cell line not named, 10% FBS media
Procedure: Assay 4: In Vitro Cell Proliferation Assay in Cancer Cell Lines
Growth inhibition assays were carried out using 10% FBS supplemented media. Cells were seeded at a concentration of 5000-20,000 cells/well in a 96-well plate. Test compounds at a concentration range from 0.01 to 10000 nM were added after 24 hours. Growth was assessed using the 3-[4,5-dimethylthiazol-2-yl]-2,5-diphenyltetrazolium bromide (MIT) dye reduction test at 0 h (prior to the addition of the test compound) and 72 hours after the addition of test compound. Absorbance was read on a Fluostar Optima (BMG Labtech, Germany) at a wave length of 450 nm. Data were analysed using GraphPad Prism and percent inhibition due to the test compound compared to the control was calculated accordingly.

Row | inhibition at 0.1 µM ([1]; 0.1 μM, mice brain homogenate) [%] | inhibition at 1 µM ([1]; mice brain homogenate) [%] | melting point [°C] | GI50 [2] [µM] | SMILES | inhibition at 0.1 µM [1] [%]
1 | < 25 | < 25 | 240 to 244 | – | O=C(Cc1cccc(OC(F)(F)F)c1)Nc1nnc(CC2CCC(Cc3nnc(NC(=O)Cc4cccc(OC(F)(F)F)c4)s3)CC2)s1 (stereo not drawn) [Example-104, N,N′-(5,5′-(cyclohexane-1,4-diylbis(methylene))bis(1,3,4-thiadiazole-5,2-diyl))bis(2-(3-(trifluoromethoxy)phenyl)acetamide)] | –
2 | 25 to 50 | 25 to 50 | 268 to 270 | – | O=C(Cc1cccnc1)Nc1nnc(CC2CCC(Cc3nnc(NC(=O)Cc4cccnc4)s3)CC2)s1 (stereo not drawn) [Example-103, N,N′-(5,5′-(cyclohexane-1,4-diylbis(methylene))bis(1,3,4-thiadiazole-5,2-diyl))bis(2-(pyridin-3-yl)acetamide)] | –
3 | 25 to 50 | 50 to 75 | 176 to 178 | < 0.1 | O=C(Cc1ccccn1)Nc1ccc(CCCCc2nnc(NC(=O)Cc3cccc(OC(F)(F)F)c3)s2)cn1 [Example-8, 2-(Pyridin-2-yl)-N-(5-(4-(5-(2-(3-(trifluoromethoxy)phenyl)acetamido)-1,3,4-thiadiazol-2-yl)butyl)pyridin-2-yl)acetamide] | –
4 | < 25 | < 25 | 278 to 280 | – | O=C(Cc1cccc(OC(F)(F)F)c1)Nc1nnc(CC2CCC(Cc3nnc(NC(=O)Cc4ccccn4)s3)CC2)s1 (stereo not drawn) [Example-105, 2-(Pyridin-2-yl)-N-(5-((4-((5-(2-(3-(trifluoromethoxy)phenyl)acetamido)-1,3,4-thiadiazol-2-yl)methyl)cyclohexyl)methyl)-1,3,4-thiadiazol-2-yl)acetamide] | –
5 | < 25 | < 25 | 96 to 101 | – | Cc1nc(NC(=O)Cc2cccc(OC(F)(F)F)c2)ccc1CCCCc1nnc(NC(=O)Cc2ccccn2)s1 [Example-9, N-(6-Methyl-5-(4-(5-(2-(pyridin-2-yl)acetamido)-1,3,4-thiadiazol-2-yl)butyl)pyridin-2-yl)-2-(3-(trifluoromethoxy)phenyl)acetamide] | –

Continued, molecule first:

Row | SMILES | inhibition at 0.1 µM ([1]; 0.1 μM, mice brain homogenate) [%] | inhibition at 1 µM ([1]; mice brain homogenate) [%] | melting point [°C] | GI50 [2] [µM] | inhibition at 0.1 µM [1] [%]
6 | O=C(Cc1ccncc1)Nc1ccc(CCCCc2nnc(NC(=O)Cc3cccc(OC(F)(F)F)c3)s2)cn1 [Example-22, 2-(Pyridin-4-yl)-N-(5-(4-(5-(2-(3-(trifluoromethoxy)phenyl)acetamido)-1,3,4-thiadiazol-2-yl)butyl)pyridin-2-yl)acetamide] | < 25 | 50 to 75 | 135 to 137 | 1 to 5 | –
7 | O=C(Cc1cccc(OC(F)(F)F)c1)Nc1ccc(CCCCc2nnc(NC(=O)Cn3cccn3)s2)cn1 [Example-27, N-(5-(4-(5-(2-(1H-pyrazol-1-yl)acetamido)-1,3,4-thiadiazol-2-yl)butyl)pyridin-2-yl)-2-(3-(trifluoromethoxy)phenyl)acetamide] | < 25 | 50 to 75 | 174 to 178 | 5 to 10 | –
8 | Cc1ccc(F)c(C(=O)Nc2nnc(CCCCc3ccc(NC(=O)Cc4cccc(OC(F)(F)F)c4)nc3)s2)n1 [Example-37, 3-Fluoro-6-methyl-N-(5-(4-(6-(2-(3-(trifluoromethoxy)phenyl)acetamido)pyridin-3-yl)butyl)-1,3,4-thiadiazol-2-yl)picolinamide] | < 25 | < 25 | 130 to 133 | – | –
9 | O=C(Cc1cccnc1)Nc1nnc(C2CCC(c3nnc(NC(=O)Cc4cccnc4)s3)CC2)s1 (stereo not drawn) [Example-102, N,N′-(5,5′-(cyclohexane-1,4-diyl)bis(1,3,4-thiadiazole-5,2-diyl))bis(2-(pyridin-3-yl)acetamide)] | – | – | 180 to 182 | – | < 25
10 | CC(Cl)C(=O)Nc1nnc(CCCCc2ccc(NC(=O)Cc3cccc(OC(F)(F)F)c3)nc2)s1 (stereo not drawn) [Example-23, 2-Chloro-N-(5-(4-(6-(2-(3-(trifluoromethoxy)phenyl)acetamido)pyridin-3-yl)butyl)-1,3,4-thiadiazol-2-yl)propanamide] | < 25 | < 25 | 132 to 134 | 5 to 10 | –
11 | O=C(Cc1cccc(OC(F)(F)F)c1)Nc1ccc(CCCCc2ccc(NC(=O)Cc3cccc(OC(F)(F)F)c3)nc2)cn1 [Example-40, N,N′-(5,5′-(Butane-1,4-diyl)bis(pyridine-5,2-diyl))bis(2-(3-(trifluoromethoxy)phenyl)acetamide)] | < 25 | < 25 | 153 to 155 | – | –
12 | O=C(Cc1cccnc1)Nc1nnc(CCCCc2ccc(NC(=O)Cc3cccc(OC(F)(F)F)c3)c(F)c2)s1 [Example-42, N-(5-(4-(3-Fluoro-4-(2-(3-(trifluoromethoxy)phenyl)acetamido)phenyl)butyl)-1,3,4-thiadiazol-2-yl)-2-(pyridin-3-yl)acetamide] | < 25 | < 25 | 176 to 180 | – | –
13 | O=C(Cc1cccc(OC(F)(F)F)c1)Nc1ccc(CCCCc2nnc(NC(=O)Cc3cccnc3)s2)cn1 [Example-10, 2-(Pyridin-3-yl)-N-(5-(4-(6-(2-(3-(trifluoromethoxy)phenyl)acetamido)pyridin-3-yl)butyl)-1,3,4-thiadiazol-2-yl)acetamide] | 75 to 100 | 75 to 100 | 176 to 178 | – | –
